US9573895B2, “Tetracycline compounds” (Tetraphase Pharmaceuticals, Inc., priority 2012, dated 2017)
In brackets after ≈: the same amount, converted by molar mass.

System: Burkholderia cenocepacia BC240 (Cystic fibrosis isolate, MDR)
Assay: MIC assay BC240
Format: cell-based

Compound	MIC BC240 (Table 5) [µg/mL]	MIC BC240 (Table 6) [µg/mL]	MIC BC240 (Table 7) [µg/mL]	MIC BC240 (control compounds, numeric) [µg/mL]
CN(C)[C@@H]1C(O)=C(C(N)=O)C(=O)[C@@]2(O)C(O)=C3C(=O)c4c(O)cccc4C[C@H]3C[C@@H]12 [Sancycline, sancycline]	4 (≈ 9.65 µM)	4 (≈ 9.65 µM)	4 (≈ 9.65 µM)	4 (≈ 9.65 µM)
CN(C)c1cc(NC(=O)CNC(C)(C)C)c(O)c2c1C[C@H]1C[C@H]3[C@H](N(C)C)C(O)=C(C(N)=O)C(=O)[C@@]3(O)C(O)=C1C2=O [Tigecycline, tigecycline]	16 (≈ 27.3 µM)	16 (≈ 27.3 µM)	16 (≈ 27.3 µM)	16 (≈ 27.3 µM)
